Assay results published in paper PMC9866191, “Novel 9-Benzylaminoacridine Derivatives as Dual Inhibitors of Phosphodiesterase 5 and Topoisomerase II for the Treatment of Colon Cancer” (Molecules, 2023).

Key:
Experiment in all cases: NCI-60 one-dose screen
Type in all cases: cell-based
786-0 = conditions: Homo sapiens; 786-0, Renal Cancer panel; single dose 10^−5 M; read-out: Growth inhibition %
A498 = conditions: Homo sapiens; A498, Renal Cancer panel; single dose 10^−5 M; read-out: Growth inhibition %
A549/ATCC = conditions: Homo sapiens, Non-small cell lung panel, single dose 10^−5 M, read-out: Growth inhibition %
ACHN = conditions: Homo sapiens, Renal Cancer panel, single dose 10^−5 M, read-out: Growth inhibition %
BT-549 = conditions: Homo sapiens; BT-549, Breast Cancer panel; single dose 10^−5 M; read-out: Growth inhibition %
CAKI-1 = conditions: Homo sapiens; CAKI-1, Renal Cancer panel; single dose 10^−5 M; read-out: Growth inhibition %
COLO 205 = conditions: Homo sapiens; COLO 205, Colon Cancer panel; single dose 10^−5 M; read-out: Growth inhibition %
DU-145 = conditions: Homo sapiens; DU-145, Prostate Cancer panel; single dose 10^−5 M; read-out: Growth inhibition %
HCC-2998 = conditions: Homo sapiens; HCC-2998, Colon Cancer panel; single dose 10^−5 M; read-out: Growth inhibition %
HCT-116 = conditions: Homo sapiens, read-out: Growth inhibition %
HOP-62 = conditions: Homo sapiens; HOP-62, Non-small cell lung panel; single dose 10^−5 M; read-out: Growth inhibition %
K-562 = conditions: Homo sapiens, K562; K-562, Leukemia panel; single dose 10^−5 M; read-out: Growth inhibition %
KM12 = conditions: Homo sapiens; KM12, Colon Cancer panel; single dose 10^−5 M; read-out: Growth inhibition %
MCF7 = conditions: Homo sapiens; MCF7, Breast Cancer panel; single dose 10^−5 M; read-out: Growth inhibition %
MDA-MB-468 = conditions: Homo sapiens; MDA-MB-468, Breast Cancer panel; single dose 10^−5 M; read-out: Growth inhibition %
NCI-H226 = conditions: Homo sapiens; NCI-H226, Non-small cell lung panel; single dose 10^−5 M; read-out: Growth inhibition %
NCI-H522 = conditions: Homo sapiens; NCI-H522, Non-small cell lung panel; single dose 10^−5 M; read-out: Growth inhibition %
NCI/ADR-RES = conditions: Homo sapiens, Ovarian Cancer panel, single dose 10^−5 M, read-out: Growth inhibition %
PC-3 = conditions: Homo sapiens; PC-3, Prostate Cancer panel; single dose 10^−5 M; read-out: Growth inhibition %
RXF 393 = conditions: Homo sapiens; RXF 393, Renal Cancer panel; single dose 10^−5 M; read-out: Growth inhibition %
SF-295 = conditions: Homo sapiens; SF-295, CNS Cancer panel; single dose 10^−5 M; read-out: Growth inhibition %
SF-539 = conditions: Homo sapiens; SF-539, CNS Cancer panel; single dose 10^−5 M; read-out: Growth inhibition %
SK-MEL-28 = conditions: Homo sapiens; SK-MEL-28, Melanoma panel; single dose 10^−5 M; read-out: Growth inhibition %
SK-MEL-5 = conditions: Homo sapiens; SK-MEL-5, Melanoma panel; single dose 10^−5 M; read-out: Growth inhibition %
SK-OV-3 = conditions: Homo sapiens; SK-OV-3, Ovarian Cancer panel; single dose 10^−5 M; read-out: Growth inhibition %
SN12C = conditions: Homo sapiens, Renal Cancer panel, single dose 10^−5 M, read-out: Growth inhibition %
SNB-19 = conditions: Homo sapiens; SNB-19, CNS Cancer panel; single dose 10^−5 M; read-out: Growth inhibition %
SR = conditions: Homo sapiens, Leukemia panel, single dose 10^−5 M, read-out: Growth inhibition %
SW-620 = conditions: Homo sapiens; SW-620, Colon Cancer panel; single dose 10^−5 M; read-out: Growth inhibition %
U251 = conditions: Homo sapiens, U-251; U251, CNS Cancer panel; single dose 10^−5 M; read-out: Growth inhibition %
UACC-62 = conditions: Homo sapiens; UACC-62, Melanoma panel; single dose 10^−5 M; read-out: Growth inhibition %
UO-31 = conditions: Homo sapiens; UO-31, Renal Cancer panel; single dose 10^−5 M; read-out: Growth inhibition %

Structure (SMILES) | inhibition at 10 µM (786-0) [%] | inhibition at 10 µM (A498) [%] | inhibition at 10 µM (A549/ATCC) [%] | inhibition at 10 µM (ACHN) [%] | inhibition at 10 µM (BT-549) [%] | inhibition at 10 µM (CAKI-1) [%] | inhibition at 10 µM (COLO 205) [%] | inhibition at 10 µM (DU-145) [%] | inhibition at 10 µM (HCC-2998) [%] | inhibition at 10 µM (HCT-116) [%] | inhibition at 10 µM (HOP-62) [%] | inhibition at 10 µM (K-562) [%] | inhibition at 10 µM (KM12) [%] | inhibition at 10 µM (MCF7) [%] | inhibition at 10 µM (MDA-MB-468) [%] | inhibition at 10 µM (NCI-H226) [%] | inhibition at 10 µM (NCI-H522) [%] | inhibition at 10 µM (NCI/ADR-RES) [%] | inhibition at 10 µM (PC-3) [%] | inhibition at 10 µM (RXF 393) [%] | also measured
c1ccc(CNc2c3ccccc3nc3ccccc23)cc1 [Compound 1, Acridin-9-yl-benzyl-amine] | 65.7 | 83.4 | 71.5 | 81.9 | 27.2 | 66.9 | 92.7 | 51.4 | 61.8 | 91.6 | 54 | 87.7 | 69.5 | 88 | 80.7 | 48.3 | 43.2 | 62.4 | 62.8 | 58.1 | inhibition at 10 µM (SF-295): 62.4%; inhibition at 10 µM (SF-539): 76%; inhibition at 10 µM (SK-MEL-28): 14.5%; inhibition at 10 µM (SK-MEL-5): 36.9%; inhibition at 10 µM (SK-OV-3): 53.3%; inhibition at 10 µM (SN12C): 62.5%; inhibition at 10 µM (SNB-19): 60.6%; inhibition at 10 µM (SR): 88.3%; inhibition at 10 µM (SW-620): 75.5%; inhibition at 10 µM (U251): 61.5%; inhibition at 10 µM (UACC-62): 39%; inhibition at 10 µM (UO-31): 76.2%
Cc1cccc(CNc2c3ccccc3nc3ccccc23)c1 [Compound 3, Acridin-9-yl-(3-methylbenzyl)-amine] | 75.8 | 102 | 77.4 | 84.2 | 32.7 | 82.3 | 116 | 66.1 | 96.4 | 90.2 | 59.6 | 98.1 | 74.4 | 93.8 | 100 | 59.4 | 47.9 | 74.3 | 75.1 | 102 | inhibition at 10 µM (SF-295): 74.7%; inhibition at 10 µM (SF-539): 88.3%; inhibition at 10 µM (SK-MEL-28): 41.2%; inhibition at 10 µM (SK-MEL-5): 80.2%; inhibition at 10 µM (SK-OV-3): 54.7%; inhibition at 10 µM (SN12C): 73.9%; inhibition at 10 µM (SNB-19): 70.3%; inhibition at 10 µM (SR): 103%; inhibition at 10 µM (SW-620): 82.8%; inhibition at 10 µM (U251): 76.3%; inhibition at 10 µM (UACC-62): 57.2%; inhibition at 10 µM (UO-31): 85.3%
COc1ccc(CNc2c3ccccc3nc3ccccc23)cc1F [Compound 19, Acridin-9-yl-(3-fluoro-4-methoxybenzyl)-amine] | 74 | 106 | 77.2 | 89.1 | 50.5 | 78.7 | 91.3 | 72.8 | 94.2 | 87.7 | 55.5 | 95.2 | 67.2 | 97.7 | 119 | 57 | 63.8 | 79.2 | 69.5 | 88.9 | inhibition at 10 µM (SF-295): 79.9%; inhibition at 10 µM (SF-539): 81.8%; inhibition at 10 µM (SK-MEL-28): 53.3%; inhibition at 10 µM (SK-MEL-5): 63.5%; inhibition at 10 µM (SK-OV-3): 52%; inhibition at 10 µM (SN12C): 74.1%; inhibition at 10 µM (SNB-19): 72%; inhibition at 10 µM (SR): 95.2%; inhibition at 10 µM (SW-620): 83.4%; inhibition at 10 µM (U251): 73.1%; inhibition at 10 µM (UACC-62): 57.5%; inhibition at 10 µM (UO-31): 86.5%
COc1ccc2nc3ccccc3c(NCc3ccc(C)cc3)c2c1 [Compound 26, (2-Methoxyacridin-9-yl)-(4-methylbenzyl)-amine] | 84.2 | 102 | 80.7 | 83.7 | 48.4 | 73.8 | 141 | 78.4 | 158 | 91.4 | 61 | 97.3 | 62.7 | 96.6 | 119 | 57.9 | 73.6 | 76.2 | 88.6 | 93.8 | inhibition at 10 µM (SF-295): 76.4%; inhibition at 10 µM (SF-539): 89.3%; inhibition at 10 µM (SK-MEL-28): 33.6%; inhibition at 10 µM (SK-MEL-5): 65.6%; inhibition at 10 µM (SK-OV-3): 47.3%; inhibition at 10 µM (SN12C): 76.4%; inhibition at 10 µM (SNB-19): 70.8%; inhibition at 10 µM (SR): 113%; inhibition at 10 µM (SW-620): 81.5%; inhibition at 10 µM (U251): 84.7%; inhibition at 10 µM (UACC-62): 44.3%; inhibition at 10 µM (UO-31): 86.7%
COc1ccc(CNc2c3ccccc3nc3ccccc23)cc1 [Compound 7, Acridin-9-yl-(4-methoxybenzyl)-amine] | 67.6 | 90 | 71.1 | 81.2 | 19.9 | 70.7 | 88.4 | 52 | 61.4 | 90.5 | 46.1 | 93 | 66.8 | 87.4 | 72.9 | 48.6 | 47 | 61.2 | 66 | 72.4 | inhibition at 10 µM (SF-295): 60.9%; inhibition at 10 µM (SF-539): 72.5%; inhibition at 10 µM (SK-MEL-28): 20.4%; inhibition at 10 µM (SK-MEL-5): 37.8%; inhibition at 10 µM (SK-OV-3): 46.2%; inhibition at 10 µM (SN12C): 67.8%; inhibition at 10 µM (SNB-19): 66%; inhibition at 10 µM (SR): 93%; inhibition at 10 µM (SW-620): 74.4%; inhibition at 10 µM (U251): 63.5%; inhibition at 10 µM (UACC-62): 44.2%; inhibition at 10 µM (UO-31): 77.9%
